Results on one substance are retold here after article PMC8148055 (Acta Pharmaceutica Sinica. B, 2020).

In the series the target is sirtuin 6 (SIRT6) (Homo sapiens, UniProt Q8N6T7). The experiment in a line: Fluor de Lys deacetylation assay. The class given is biochemical.
sirtuin 6 (SIRT6), sequence (Q8N6T7 2-355): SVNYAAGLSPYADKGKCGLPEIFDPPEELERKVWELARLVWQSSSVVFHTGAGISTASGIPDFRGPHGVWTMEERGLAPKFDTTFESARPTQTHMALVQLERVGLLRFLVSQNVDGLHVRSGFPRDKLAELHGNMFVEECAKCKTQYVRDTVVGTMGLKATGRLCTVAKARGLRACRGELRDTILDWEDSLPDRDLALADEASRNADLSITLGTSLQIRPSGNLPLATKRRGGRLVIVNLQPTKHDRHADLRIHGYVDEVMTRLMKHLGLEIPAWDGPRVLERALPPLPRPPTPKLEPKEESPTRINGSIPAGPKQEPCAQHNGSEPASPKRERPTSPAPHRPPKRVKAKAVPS

Consider MDL-801-E1, for which the “Fluor de Lys deacetylation assay (about 4-fold activation)” value is ~ 4 fold.
